# Experiments:
# Type in all cases: in vivo, human
# [1] = tested on: patients known to give positive skin test to penicillin derivatives; test: Intradermal skin test with BPO-amines and other penicillin allergy skin test materials (Table II); details: for Intensity of reactions in patients: patient alpha / Skin test reaction of patient four, in words: patient four; for Skin test reaction of patient four, in words: text summary of Table II; for Intensity of reactions in patients: patient iota: patient nine; for Intensity of reactions in patients: patient epsilon: patient seven; for Intensity of reactions in patients: delta: patient six; for Intensity of reactions in patients: theta: patient two; for Intensity of reactions in patients: patient zeta: patient one; for Intensity of reactions in patients: beta: patient three; for Intensity of reactions in patients: patient gamma: patient eight
# Description: Benzylpenicillin (PG) was 1.0×10^-2 M in 0.11M saline.
# Sodium benzylpenicilloate plus sodium benzylpenilloate (P/P) was 1.0×10^-2 M of each dissolved in phosphate buffered saline at pH 7.5.
# Benzylpenicilloyl-amine (BPO-amine) was 1.0×10^-2 M concentration phosphate buffered saline at pH 7.5.
# Benzylpenicilloyl-n-propyl amine and benzylpenicilloyl-n-ethyl amine (as α-diastereoisomers) were each dissolved to 1.0×10^-2 M concentration in phosphate buffered saline at pH 7.5.
# They were healthy men and women ranging in age from 23 to 56 years. Ten people negative to the skin test materials served as controls.
# Using 1.0 ml tuberculin syringes with #26 needles and intradermal bevels, 0.01 ml volumes of the test materials were injected intradermally into the anterior-lateral aspects of the arms. Skin tests were read in 15 minutes. A negative reaction is the poorly outlined bleb of fluid --1-3 mm in diameter without surrounding erythema. Positive tests were sharply outlined wheals of 4-20 mm diameter with surrounding erythema. The positive tests were graded as 1+,2+,3+ and 4+ on the basis of wheal diameter. 1+=4-6 mm; 2+=7-9 mm; 3+=10-12 mm; and 4+=more than 13 mm with pseudopods. […] Skin tests were done in duplicate.
# [2] = tested on: patients allergic to penicillin; test: Prick skin test with B8 L8 solution; details: Patient No. 1; B8 L8 1×10^-6 molar in tris-buffered saline pH 8.2
# Procedure: (§1) The B8 L8 stock solution was diluted to 1×10^-6 molar in tris-buffered saline with a pH of 8.2, also containing ethylenediaminetetraceticacid (2×10^-4 molar) for stability. The composition was then used in skin testing. The tests were conducted by both the prick test and intradermal test methods, and the results were as follows:
# Patient No. 1--prick test--B8 L8 =2+.
# [3] = tested on: patients allergic to penicillin; test: Intradermal skin test with B8 L8 solution; details: Patient No. 2; B8 L8 1×10^-6 molar in tris-buffered saline pH 8.2
# Procedure: as §1
# Patient No. 2--intradermal test--the B8 L8 gave a 10 mm wheal and rated from 2+ to 3+ in intensity.
# [4] = intradermal 0.01 ml, read in 15 minutes, BPL 1 × 10^-6 M, other materials 1 × 10^-2 M
compound,measurement,setting,value
"CCNC(=O)C(NC(=O)Cc1ccccc1)C1NC(C(=O)O)C(C)(C)S1 (centres unmarked) [BPO-ethyl amine, benzylpenicilloyl-n-ethyl amine]",Intensity of reactions in patients: patient alpha,[1]; [4],2+ (2+=7-9 mm)
same,"Skin test reaction of patient four, in words",[1],positive reaction
same,Intensity of reactions in patients: patient iota,[1]; [4],0 (A negative reaction is the poorly outlined bleb of fluid --1-3 mm in diameter without surrounding erythema)
same,Intensity of reactions in patients: patient epsilon,[1]; [4],trace
same,Intensity of reactions in patients: delta,[1]; [4],0 (A negative reaction is the poorly outlined bleb of fluid --1-3 mm in diameter without surrounding erythema)
same,Intensity of reactions in patients: theta,[1]; [4],3+ (3+=10-12 mm)
"CCCNC(=O)[C@@H](NC(=O)Cc1ccccc1)[C@@H]1N[C@@H](C(=O)O)C(C)(C)S1 [BPO-propyl amine, Benzylpenicilloyl-n-propyl amine]","Skin test reaction of patient four, in words",[1],positive reaction
same,Intensity of reactions in patients: patient iota,[1]; [4],1+ (1+=4-6 mm)
same,Intensity of reactions in patients: patient zeta,[1]; [4],1 - 2°
same,Intensity of reactions in patients: patient epsilon,[1]; [4],trace
same,Intensity of reactions in patients: delta,[1]; [4],0 (A negative reaction is the poorly outlined bleb of fluid --1-3 mm in diameter without surrounding erythema)
same,Intensity of reactions in patients: beta,[1]; [4],2+ (2+=7-9 mm)
"CC1(C)S[C@@H]2[C@H](NC(=O)Cc3ccccc3)C(=O)N2[C@H]1C(=O)O [PG, Benzylpenicillin]",Intensity of reactions in patients: patient gamma,[1]; [4],0 (A negative reaction is the poorly outlined bleb of fluid --1-3 mm in diameter without surrounding erythema)
same,Intensity of reactions in patients: patient eta,"[1]; patient five, intradermal 0.01 ml, read in 15 minutes, BPL 1 × 10^-6 M, other materials 1 × 10^-2 M",0 (A negative reaction is the poorly outlined bleb of fluid --1-3 mm in diameter without surrounding erythema)
same,Intensity of reactions in patients: patient alpha,[1]; [4],0 (A negative reaction is the poorly outlined bleb of fluid --1-3 mm in diameter without surrounding erythema)
same,Intensity of reactions in patients: patient iota,[1]; [4],trace
same,Intensity of reactions in patients: patient zeta,[1]; [4],2+ (2+=7-9 mm)
same,Intensity of reactions in patients: patient epsilon,[1]; [4],trace
same,Intensity of reactions in patients: delta,[1]; [4],0 (A negative reaction is the poorly outlined bleb of fluid --1-3 mm in diameter without surrounding erythema)
same,Intensity of reactions in patients: beta,[1]; [4],1+ (1+=4-6 mm)
same,Intensity of reactions in patients: theta,[1]; [4],2+ (2+=7-9 mm)
Benzylpenicilloyl8 -Poly-L-Lysine8 [B8 L8],Prick test reaction intensity,[2],2+ (2+=7-9 mm)
same,"Size of the wheal (diameter), prick test",[2],4-5 mm
same,"Wheal, intradermal test",[3],10 mm
Benzylpenicilloyl-amine [BPO-amine],Intensity of reactions in patients: patient gamma,[1]; [4],1+ (1+=4-6 mm)
same,Intensity of reactions in patients: patient alpha,[1]; [4],1+ (1+=4-6 mm)
same,Intensity of reactions in patients: patient iota,[1]; [4],2+ (2+=7-9 mm)
same,Intensity of reactions in patients: patient epsilon,[1]; [4],trace
same,Intensity of reactions in patients: delta,[1]; [4],0 (A negative reaction is the poorly outlined bleb of fluid --1-3 mm in diameter without surrounding erythema)

# — patent US4183910A, “Method for testing to predict and/or diagnose allergy to penicillins, and compounds and compositions for use in such tests” (priority 1978, dated 1980)
